We go through seven compounds from patent publication US8076334B2, “Prodrugs of thyroid hormone analogs” (Hoffmann-La Roche Inc., priority 2007, dated 2011).

Structures are written as SMILES.

The nature of series [1]: Permeability from Caco-2 cells (transport assay). Format: in vitro ADME. To be noted: human; Caco-2 monolayers, transport medium pH 7.4, samples at 60 and 120 min. How it is done:
(§1) Caco-2 cells were grown in Minimum Essential Medium (MEM), containing 10% fetal bovine serum, 1% non-essential amino acids, 100 units/ml penicillin and 100 μg/ml streptomycin. They were incubated at 37° C. in a humidified atmosphere of 5% CO2. Culture medium was changed every other day. Caco-2 cells were passed once per week by trypsinization.
(§2) Caco-2 cells were seeded at a density of 4.55×10^5 cells/cm^2. Caco-2 cells were incubated for 7 days at 37° C. Medium was changed every two or three days for Caco-2 cells. Prior to the experiment, cells were equilibrated with transport medium [HBSS (pH 7.4) containing 10 mM HEPES] at 37° C. for 30 min. The transepithelial electrical resistance (TEER) of cell monolayers was measured using “chopstick” electrodes (World Precision Instruments, Sarasota, Fla.). Caco-2 cell monolayers with TEER values>500 were used for the assays.
(§3) Samples were prepared in transport medium containing 1% DMSO. Test compounds were applied to the donor chamber at 10 μM. Plates were incubated at 37 °C while shaking at 90 rpm. Samples were taken at 60 and 120 min from the receiver chamber. TEER values were measured at 5 minutes before the final sampling time point. Samples were mixed with 2 volumes of acetonitrile and centrifuged at 3,500 rpm at 4° C. for 10 min. The supernatant was diluted with 1 volume of water containing 1% acetic acid. Samples were analyzed by LC/MS. Standard serial dilutions were prepared manually at 10, 50, 250, 1,250 and 2,500 nM.
(§4) The apparent permeability (Papp) was calculated with the following equation:
(§5) [formula] where C is the receiver chamber drug concentration, t is time in second, V is the volume of the receiver chamber, Co is the initial drug concentration in the donor chamber and A is the surface area of the filter.

In series [2] the test system is Caco-2 cells. As to the kind of experiment: Permeability from Caco-2 cells (transport assay). The conditions noted are these: Caco-2; calculated from pro-drug only, does not include converted drug; in % (unit assumed). Format: in vitro ADME. How it is done:
as §1, §2, §3, §4, §5

Series [3] deals with T1, THR-beta/RXR/GRIP (Homo sapiens, UniProt P10828).
T1 construct: made in house; host or cells: E. coli BL21 (DE3) for H6-TRβ; E. coli for EE-RxRα
T1 sequence (P10828 202-461 limits assumed): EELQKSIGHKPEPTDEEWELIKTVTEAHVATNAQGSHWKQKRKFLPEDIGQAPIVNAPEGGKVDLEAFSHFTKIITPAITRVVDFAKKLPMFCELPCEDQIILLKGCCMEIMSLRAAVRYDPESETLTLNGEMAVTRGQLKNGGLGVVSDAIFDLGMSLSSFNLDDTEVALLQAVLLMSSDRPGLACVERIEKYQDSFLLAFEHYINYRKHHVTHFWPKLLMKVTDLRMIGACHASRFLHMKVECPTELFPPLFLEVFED
T1 sequence (P19793 225-462 partner limits assumed): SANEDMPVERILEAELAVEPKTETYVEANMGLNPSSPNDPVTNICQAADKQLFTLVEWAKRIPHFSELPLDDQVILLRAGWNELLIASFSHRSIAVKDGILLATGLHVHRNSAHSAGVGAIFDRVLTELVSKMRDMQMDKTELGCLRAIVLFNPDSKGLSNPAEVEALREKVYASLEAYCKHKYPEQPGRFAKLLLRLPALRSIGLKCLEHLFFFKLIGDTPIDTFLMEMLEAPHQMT
T1 sequence (Q15596 679-703 partner limits assumed): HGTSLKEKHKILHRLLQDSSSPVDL
Briefly: THR-beta/RXR/GRIP coactivator peptide recruitment assay (HTRF). The series is classed as biochemical. To be noted: H6-TRβ ligand binding domain, EE-RxRα, biotin-GRIP peptide. How it is done:
In this Example, a TR/RXR/GRIP assay was used to test representative compounds of formula (I).
Lysozyme (1.0 mg/ml, Sigma) and Complete Protease Inhibitor Cocktail (Roche Diagnostics Gmbh) were added to slurry and solution sonicated for one min five times at 4° C.
The resulting His6-EE-tagged protein was produced in E. coli cells. Cells were grown using shake flasks with an 18 hour induction in 0.1 mM IPTG at 18° C., harvested and suspended with five volumes of Buffer B (0.025M Tris, 0.3M NaCl, 0.02 M imidazole, 0.01M β-mercaptoethanol, pH 8.0). Lysozyme (0.2 mg/ml, Sigma) and Complete Protease Inhibitor Cocktail (Roche Diagnostics Gmbh) were added and stirred for 30 min. at 4° C. The suspension was sonicated for 30 seconds, five times, at 4° C. The suspension was centrifuged for 20 min. at 12,000 RCF. The supernatant was filtered by 0.45 μm pore size membrane and 0.5% NP-40 was added. […] The protein was concentrated and dialyzed.
The His6 tag was removed from EE-RxRα by thrombin digestion, using 10 units thrombin (Pharmacia, Piscataway, N.J.) per mg protein and incubating for 2 hours at 25° C. […]
Six microliters of T3 (0-14.8 uM) or test compound (0-1.2 mM) in DMSO was then added and the solution incubated at 37° C. for 30 min. […] The HTRF signal was read on the Victor 5 reader (PerkinElmer Life and Analytical Sciences).
Background: In TR-FRET formats the signal depends on donor and acceptor labels being close together.

Series [4] is described as follows: Single dose PO PK in rats. Format: in vivo. To be noted: rat, 10 mg/kg PO. The procedure:
A single dose (10 mg/kg) PO (intubation) PK in rats (3 animals) was performed with the compound of Example 5 using a 2% Klucel, 0.1% Tween 80 in water formulation.
Aliquots (0.05 mL) of rat plasma were protein precipitated with acetonitrile. The extracts were diluted with an equal volume of water and injected onto the LC/MS/MS system.
Both the prodrug and parent, compound Ia, were monitored. […] Variability in exposure of the parent after dosing with the prodrug was improved over that obtained after dosing with parent.

The nature of series [5]: Single dose PO PK in dogs. Format: in vivo. The conditions noted are these: dog, 10 mg/kg PO. How it is done:
A single dose (10 mg/kg) PO (intubation) PK in dogs (3 animals) was performed with the compound of Example 5 using a 2% Klucel, 0.1% Tween 80 in water formulation.
Aliquots (0.05 mL) of dog plasma were mixed with 0.050 mL of pH 7.4 phosphate buffered saline and a 0.010 mL aliquot of a stable labeled internal standard working solution. Each of the samples was then extracted with 0.500 mL of ethyl acetate. A 0.350 mL aliquot of each of the sample extract supernatant was transferred to an injection block and evaporated to dryness using the turbovap evaporator. The sample was then reconstituted with 0.200 mL of a 1:1 mixture of water:acetonitrile containing 0.1% acetic acid. A 0.020 mL sample from each well was injected onto the LC/MS/MS system.
The compound of Example 5was dosed orally to dogs at 10 mg/kg. Both the prodrug and parent, compound Ia, were monitored. […] However, the variability in the oral exposure was reduced when dosed with the compound of Example 5 as compared when dosed with parent.

Where [6] appears, read: plasma level of parent compound Ia.

In series [1], `CC(=O)OCn1nc(Oc2c(Cl)cc(-n3nc(C#N)c(=O)[nH]c3=O)cc2Cl)cc(C(C)C)c1=O` [Example 2, Acetic acid 3-[2,6-dichloro-4-(6-cyano-3,5-dioxo-4,5-dihydro-3H-[1,2,4]triazin-2-yl)-phenoxy]-5-isopropyl-6-oxo-6H-pyridazin-1-ylmethyl ester] displayed a Papp at 120 min, 10 μM of 4.58 ± 0.74 ×10⁻⁶ cm/s. In series [2], the “Mass Balance” value is recorded as 71.0.
`CC(C)C(=O)OCn1nc(Oc2c(Cl)cc(-n3nc(C#N)c(=O)[nH]c3=O)cc2Cl)cc(C(C)C)c1=O` [Example 5, Isobutyric acid 3-[2,6-Dichloro-4-(6-cyano-3,5-dioxo-4,5-dihydro-3H-[1,2,4]triazin-2-yl)-phenoxy]-5-isopropyl-6-oxo-6H-pyridazin-1-ylmethyl ester] registered an EC50 in series [3] of more than 57.6 µM. Further, the Papp at 120 min, 10 μM in series [1] was determined as 8.87 ± 0.63 ×10⁻⁶ cm/s. The “Mass Balance” value in series [2] was 47.9. Besides, in series [4], the “Absorption of the prodrug compared with the parent” value was “faster than the parent” and the “Variability in exposure of the parent after dosing with the prodrug versus dosing with parent” value is “improved”. Besides, the “Species detected in plasma after oral dosing of the prodrug” value in series [4] (prodrug and parent monitored) is on record as “only the parent was detected”. Besides, in series [5], the “Bioavailability of parent after dosing with the prodrug versus dosing with parent” value is listed as “comparable” and the “Variability in the oral exposure versus dosing with parent” value is on record as “reduced”. Moreover, the “Species detected in plasma after oral dosing of the prodrug” value in series [5] (prodrug and parent monitored) was “only the parent was detected”.
`CC(C)c1cc(Oc2c(Cl)cc(-n3nc(C#N)c(=O)[nH]c3=O)cc2Cl)nn(COC(=O)N2CCOCC2)c1=O` [Example 6, Morpholine-4-carboxylic acid 3-[2,6-dichloro-4-(6-cyano-3,5-dioxo-4,5-dihydro-3H-[1,2,4]triazin-2-yl)-phenoxy]-5-isopropyl-6-oxo-6H-pyridazin-1-ylmethyl ester] gave a Papp at 120 min, 10 μM in series [1] of 1.24 ± 0.24 ×10⁻⁶ cm/s. Further, in series [2], the “Mass Balance” value is listed as 101.5.
In the same order, the values of `CC(C)c1cc(Oc2c(Cl)cc(-n3nc(C#N)c(=O)[nH]c3=O)cc2Cl)nn(COC(=O)c2cnccn2)c1=O` [Example 8, Pyrazine-2-carboxylic acid 3-[2,6-dichloro-4-(6-cyano-3,5-dioxo-4,5-dihydro-3H-[1,2,4]triazin-2-yl)-phenoxy]-5-isopropyl-6-oxo-6H-pyridazin-1-ylmethyl ester] are 0.92 ± 0.11 ×10⁻⁶ cm/s and 92.8.
In the same order, the values of `CC(C)c1cc(Oc2c(Cl)cc(-n3nc(C#N)c(=O)[nH]c3=O)cc2Cl)nn(COC(=O)CN2CCOCC2)c1=O` [Example 12, Morpholin-4-yl-acetic acid 3-[2,6-dichloro-4-(6-cyano-3,5-dioxo-4,5-dihydro-3H-[1,2,4]triazin-2-yl)-phenoxy]-5-isopropyl-6-oxo-6H-pyridazin-1-ylmethyl ester] are 1.75 ± 0.65 ×10⁻⁶ cm/s and 95.0.
In turn, `CC(C)c1cc(Oc2c(Cl)cc(-n3nc(C#N)c(=O)[nH]c3=O)cc2Cl)nn(COC(=O)CCC(=O)O)c1=O` [Example 13, Succinic acid mono-{3-[2,6-dichloro-4-(6-cyano-3,5-dioxo-4,5-dihydro-3H-[1,2,4]triazin-2-yl)-phenoxy]-5-isopropyl-6-oxo-6H-pyridazin-1-ylmethyl}ester] displayed a Papp at 120 min, 10 μM in series [1] of 0.23 ± 0.06 ×10⁻⁶ cm/s. In addition, the “Mass Balance” value in series [2] was 84.4.
For the compound `CC(C)c1cc(Oc2c(Cl)cc(-n3nc(C#N)c(=O)[nH]c3=O)cc2Cl)n[nH]c1=O` [Ia, 2-[3,5-Dichloro-4-(5-isopropyl-6-oxo-1,6-dihydro-pyridazin-3-yloxy)-phenyl]-3,5-dioxo-2,3,4,5-tetrahydro-[1,2,4]triazine-6-carbonitrile, reference compound], in series [4] (setting [6]), the “AUC Extrap” value is 28,663 ng * Hours/mL and the Tmax is 5 h. Further, in series [5] (setting [6]), the AUC is on record as 2,936 ng * Hours/mL and the Tmax was determined as 3 h.

In general, Papp refers to the rate of passage across a membrane or cell layer, normalised by area and donor concentration. Read a low Papp as slow passage. A word on the EC50: it is the midpoint of the concentration-response curve. A low value points to higher potency in that assay. Usually Tmax stands for the time from dosing to the highest level.
